Here are results for four molecules from US6413517B1, “Identification of broadly reactive DR restricted epitopes” (Epimmune, Inc., priority 1997, dated 2002).

Like-named read-outs stand apart in the source and are kept apart here. No end group written: not given here.

Assay [1] has as its target T1, DRB1*0101 (DR1) (Homo sapiens, UniProt P01903+P01911, A100R/D57E/F55L/F60I/F76Y/I96L/L162R/M171V/P40L/Q125E/R42F/V115G/Y59C).
T1 construct: Epstein-Barr virus (EBV) transformed homozygous cell lines were used as sources; endogenous in cells; host or cells: LG2 (EBV-transformed homozygous B cell line)
Put plainly: biochemical. Type of assay: binding. To be noted: Binding Capacity (IC 50% nM) DR1,4,7 DRB1.

Assay [2] concerns the target T2, DRB1*0401 (DR4w4) (Homo sapiens, UniProt P01903+P01911, A100K/A169T/F76Y/I96L/K127E/L162R/M171V/N62H/P40V/Q125Y/R42H/S133A/S149N/S66Y/V115G/V209L/W38E).
T2 construct: Epstein-Barr virus (EBV) transformed homozygous cell lines were used as sources; endogenous in cells; host or cells: PREISS (EBV-transformed homozygous B cell line)
Put plainly: biochemical. Type of assay: binding.

In assay [3] the target is T3, DRB1*0701 (DR7) (Homo sapiens, UniProt P01903+P01911, A100R/A102G/A103Q/D57E/D86V/E43K/F76Y/K127E/L162R/M171V/P40G/Q125H/Q99D/R33Q/R42Y/R54Q/S133A/S66F/T210M/V115G/Y107V/Y59L/Y89S).
T3 construct: Epstein-Barr virus (EBV) transformed homozygous cell lines were used as sources; endogenous in cells; host or cells: PITOUT (EBV-transformed homozygous B cell line)
Put plainly: biochemical. Type of assay: binding.

For assay [4], the target named is T4, DRB1*1501 (DR2w2b) (Homo sapiens, UniProt P01903+P01911).
T4 construct: expressed in transfected cells; host or cells: transfected fibroblasts L466.1
Put plainly: biochemical. Type of assay: binding.

The target in assay [5] is T5, DRB5*0101 (DR2w2a) (Homo sapiens, UniProt P01903+Q30154).
T5 construct: Epstein-Barr virus (EBV) transformed homozygous cell lines were used as sources; endogenous in cells; host or cells: GM3107 (EBV-transformed homozygous B cell line)
Put plainly: biochemical. Type of assay: binding.

In assay [6] the target is T6, DRB1*0405 (DR4w15) (Homo sapiens, UniProt P01903+P01911, A100R/A169T/D86S/F76Y/I96L/K127E/L162R/M171V/N62H/P40V/Q125Y/R42H/S133A/S149N/S66Y/V115G/V209L/W38E).
T6 construct: Epstein-Barr virus (EBV) transformed homozygous cell lines were used as sources; endogenous in cells; host or cells: KT3 (EBV-transformed homozygous B cell line)
Put plainly: biochemical. Type of assay: binding.

For assay [7], the target named is T7, DRB1*1101 (DR5w11) (Homo sapiens, UniProt P01903+P01911, A100R/A169T/A87E/I96F/K41T/L162R/M171V/P40S/Q125H/Q178H/Q39Y/Q99D/R42S/S66Y/T262R/V115G/W38E).
T7 construct: Epstein-Barr virus (EBV) transformed homozygous cell lines were used as sources; endogenous in cells; host or cells: SWEIG (EBV-transformed homozygous B cell line)
T7 sequence (P01903 26-254, other chains not shown): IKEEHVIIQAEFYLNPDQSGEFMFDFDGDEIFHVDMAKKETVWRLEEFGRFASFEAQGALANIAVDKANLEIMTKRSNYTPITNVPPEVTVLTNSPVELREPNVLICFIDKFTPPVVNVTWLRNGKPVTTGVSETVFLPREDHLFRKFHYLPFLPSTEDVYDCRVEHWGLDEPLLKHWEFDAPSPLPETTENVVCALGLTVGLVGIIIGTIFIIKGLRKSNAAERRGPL
Put plainly: biochemical. Type of assay: binding.

Assay [8] concerns the target T8, DRB1*1302 (DR6w19) (Homo sapiens, UniProt P01903+P01911, A100E/A169T/K41T/L162R/M171V/P40S/Q125H/Q178H/Q39Y/Q99D/R42S/S66N/T262R/V115G/W38E/Y61H).
T8 construct: Epstein-Barr virus (EBV) transformed homozygous cell lines were used as sources; the source of Class II molecules the EBV transformed homozygous cell line H0301; endogenous in cells; host or cells: H0301 (EBV-transformed homozygous B cell line)
Put plainly: biochemical. Type of assay: binding.

For assay [9], the target named is T9, DRB1*0802 (DR8w2) (Homo sapiens, UniProt P01903+P01911, A100R/A103L/A169T/F76Y/H45Y/I96F/K41T/L162R/M171V/P40S/Q125H/Q178H/Q39Y/Q99D/R218S/R42G/S66Y/V115G/W38E).
T9 construct: Epstein-Barr virus (EBV) transformed homozygous cell lines were used as sources; endogenous in cells; host or cells: OLL (EBV-transformed homozygous B cell line)
Put plainly: biochemical. Type of assay: binding.

Assay [10] deals with T10, DRB1*0901 (DR9) (Homo sapiens, UniProt P01903+P01911, A100R/A103E/D57H/D86V/F55Y/F60I/F76Y/I96F/K127E/L162R/M171V/P40D/Q125H/Q99R/R33Q/R42F/S133A/S66N/T210M/V115G/W38K/Y107V/Y59G/Y89S).
T10 construct: Epstein-Barr virus (EBV) transformed homozygous cell lines were used as sources; endogenous in cells
Put plainly: biochemical. Type of assay: binding.

In assay [11] the target is T11, DRB1*1201 (DR5w12) (Homo sapiens, UniProt P01903+P01911, A100R/A169T/D57E/D86V/F55L/H45Y/K41T/L162R/M171V/P40S/Q125H/Q178H/Q39Y/Q99D/R42G/S66L/T262R/V114A/V67L/W38E/Y59H/Y61H/Y89S).
T11 construct: Epstein-Barr virus (EBV) transformed homozygous cell lines were used as sources; endogenous in cells; host or cells: Herluf (EBV-transformed homozygous B cell line)
Put plainly: biochemical. Type of assay: binding.

In assay [12] the target is T12, DRB1*0301 (DR3w17) (Homo sapiens, UniProt P01903+P01911, A100K/A102G/A103R/A169T/F55Y/I96L/K41T/L162R/M171V/P40S/Q125H/Q178H/Q39Y/R42S/S66N/T106N/T262R/W38E/Y61H). To be noted: read-out: Binding Capacity (IC 50% nM) Other Alleles DR3.
Assay [13] deals with T12, DRB1*0301 (DR3w17). Put plainly: biochemical. Particulars: Binding Capacity (IC50% nM) DR3.
The mark [14] stands for this setting: Binding Capacity (IC 50% nM) DR1,4,7 DR4w4.
Where [15] appears, read: read-out: Binding Capacity (IC 50% nM) DR1,4,7 DR7.
The mark [16] stands for this setting: read-out: Binding Capacity (IC 50% nM) Other Alleles DR2w2b.
[17] abbreviates: Binding Capacity (IC50% nM) DR2w2a.
[18] abbreviates: read-out: Binding Capacity (IC 50% nM) Other Alleles DR2w2a.
Where [19] appears, read: read-out: Binding Capacity (IC 50% nM) Other Alleles DR4w15.
The mark [20] stands for this setting: Binding Capacity (IC50% nM) DR5w11.
Where [21] appears, read: read-out: Binding Capacity (IC 50% nM) Other Alleles DR5w11.
Setting [22] is: Binding Capacity (IC50% nM) DR6w19.
Setting [23] is: read-out: Binding Capacity (IC 50% nM) Other Alleles DR6w19.
The mark [24] stands for this setting: Binding Capacity (IC50% nM) DR8w2.
The mark [25] stands for this setting: read-out: Binding Capacity (IC 50% nM) Other Alleles DR8w2.
Setting [26] is: Binding Capacity (IC50% nM) DR9.
Where [27] appears, read: read-out: Binding Capacity (IC 50% nM) Other Alleles DR9.
[28] abbreviates: Binding Capacity (IC50% nM) DR5w12.
[29] abbreviates: read-out: Binding Capacity (IC 50% nM) Other Alleles DR5w12.
Setting [30] is: Binding Capacity (IC 50% nM) Other Alleles DR2w2b.
[31] abbreviates: Binding Capacity (IC 50% nM) Other Alleles DR2w2a.
[32] abbreviates: Binding Capacity (IC 50% nM) DR1,4,7 DR7.
Where [33] appears, read: Binding Capacity (IC 50% nM) Other Alleles DR6w19.
Setting [34] is: Binding Capacity (IC 50% nM) Other Alleles DR9.

In the case of LWWSTMYLTHHYFVDL [Peptide 1136.46], the IC50 in assay [1] is < 1000 nM; in assay [2] (setting [14]) it was < 1000 nM; in assay [2] (Binding Capacity (IC50% nM) DR4w4), 985 nM; in assay [3] (Binding Capacity (IC50% nM) DR7), 5810 nM; in assay [3] (setting [15]), > 1000 nM; in assay [4] (Binding Capacity (IC50% nM) DR2w2b), > 10000 nM. Besides, the IC50 was > 1000 nM in [4] (setting [16]); > 10000 nM in assay [5] (setting [17]); > 1000 nM in [5] (setting [18]); > 10000 nM in assay [6] (Binding Capacity (IC50% nM) DR4w15); > 1000 nM in assay [6] (setting [19]); > 10000 nM in assay [7] (setting [20]). Also, the IC50 in assay [7] (setting [21]) is > 1000 nM; in assay [8] (setting [22]) it was > 10000 nM; in [8] (setting [23]) it was > 1000 nM; in assay [9] (setting [24]), > 10000 nM; in [9] (setting [25]) it was > 1000 nM; in assay [10] (setting [26]), > 10000 nM. Besides, the IC50 in assay [10] (setting [27]) is > 1000 nM; in [11] (setting [28]), > 10000 nM; in assay [11] (setting [29]), > 1000 nM; in assay [12] it was > 1000 nM; in assay [13], > 10000 nM.

In the case of `CC[C@H](C)[C@H](NC(=O)[C@H](CC(C)C)NC(=O)[C@H](CC(=O)O)NC(=O)[C@@H](NC(=O)[C@H](Cc1ccccc1)NC(=O)[C@H](Cc1ccc(O)cc1)NC(=O)[C@H](Cc1c[nH]cn1)NC(=O)[C@H](Cc1c[nH]cn1)NC(=O)[C@@H](N)[C@@H](C)O)C(C)C)C(=O)NCC(=O)NCC(=O)N[C@@H](C)C(=O)N[C@@H](CCSC)C(=O)N[C@@H](CC(C)C)C(=O)N[C@@H](CO)C(=O)N[C@@H](CC(C)C)C(=O)O` [Peptide 1136.47], the IC50 is < 1000 nM in assay [1]; < 1000 nM in assay [2] (setting [14]); > 1000 nM in assay [3] (setting [15]); < 1000 nM in [4] (setting [30]); < 1000 nM in [5] (setting [31]); > 1000 nM in assay [6] (setting [19]). For the same molecule, the IC50 in [7] (setting [21]) was > 1000 nM; in assay [8] (setting [22]), > 10000 nM; in assay [8] (setting [23]), > 1000 nM; in assay [9] (setting [24]), > 10000 nM; in assay [9] (setting [25]) it was > 1000 nM; in assay [10] (setting [26]), > 10000 nM. Further, the IC50 in assay [10] (setting [27]) is > 1000 nM; in [11] (setting [28]), > 10000 nM; in [11] (setting [29]), > 1000 nM; in assay [12], > 1000 nM; in [13], > 10000 nM.

Take `CC(C)C[C@H](NC(=O)CNC(=O)[C@H](C)NC(=O)[C@@H](N)CC(C)C)C(=O)N[C@@H](CC(C)C)C(=O)NCC(=O)N[C@@H](CC(N)=O)C(=O)N[C@H](C(=O)N[C@@H](CO)C(=O)N[C@H](C(=O)N[C@H](C(=O)N[C@@H](CC(C)C)C(=O)N[C@@H](CC(C)C)C(=O)NCC(=O)NCC(=O)O)C(C)C)[C@@H](C)O)C(C)C` [Peptide F107.10]: the IC50 is < 1000 nM in [1]; > 1000 nM in assay [2] (read-out: Binding Capacity (IC 50% nM) DR1,4,7 DR4w4); < 1000 nM in assay [3] (setting [32]); < 1000 nM in assay [4] (setting [30]); > 10000 nM in [5] (setting [17]); > 1000 nM in [5] (setting [18]). In addition, the IC50 in assay [6] (setting [19]) is > 1000 nM; in assay [7] (setting [20]) it was > 10000 nM; in assay [7] (setting [21]), > 1000 nM; in [8] (setting [33]), < 1000 nM; in [9] (setting [24]), > 10000 nM; in [9] (setting [25]), > 1000 nM. Besides, the IC50 is < 1000 nM in assay [10] (setting [34]); > 10000 nM in assay [11] (setting [28]); > 1000 nM in assay [11] (setting [29]); > 1000 nM in [12]; > 10000 nM in assay [13].

Take `CC(C)C[C@H](NC(=O)[C@H](CC(C)C)NC(=O)CNC(=O)[C@H](C)NC(=O)[C@H](CC(C)C)NC(=O)[C@@H](NC(=O)[C@H](CO)NC(=O)[C@@H](NC(=O)[C@H](C)NC(=O)[C@H](CC(C)C)NC(=O)[C@H](CCCCN)NC(=O)[C@H](Cc1ccc(O)cc1)NC(=O)[C@H](CCCCN)NC(=O)[C@H](CO)NC(=O)[C@@H](N)CCCCN)[C@@H](C)O)C(C)C)C(=O)O` [Peptide 1188.16]: the IC50 is < 1000 nM in [1]; < 1000 nM in assay [2] (setting [14]); < 1000 nM in assay [3] (setting [32]); > 1000 nM in assay [4] (setting [16]); < 1000 nM in [5] (setting [31]); < 1000 nM in assay [6] (Binding Capacity (IC 50% nM) Other Alleles DR4w15). Also, the IC50 is < 1000 nM in assay [7] (Binding Capacity (IC 50% nM) Other Alleles DR5w11); < 1000 nM in [8] (setting [33]); < 1000 nM in assay [9] (Binding Capacity (IC 50% nM) Other Alleles DR8w2); < 1000 nM in [10] (setting [34]); > 10000 nM in assay [11] (setting [28]); > 1000 nM in assay [11] (setting [29]). The IC50 was > 1000 nM in assay [12] and > 10000 nM in assay [13].
